Measurements: ChEMBL document CHEMBL1201862, “PubChem BioAssay data set” (2004)
Values belong to the molecule of their own block, whether it stands above or below them. Active and inactive are the calls of the source.

Assays:
Fatty acid synthase [1] = target: T1, Fatty acid synthase (Homo sapiens, UniProt P49327); experiment: inhibition of human FAS-TE enzyme activity – biochemical, endpoint fluorescence intensity, uHTS hits, dose response (AID 624327); type: functional;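 also: fluorescence from hydrolysis of an O-methyl fluorescein acyl ester substrate by the enzyme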
Fatty acid synthase [2] = target: T1, Fatty acid synthase; experiment: inhibition of human FAS-TE enzyme activity – biochemical, kinetic fluorescence intensity, dose response (AID 624326); type: functional;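 also: rate of fluorescence rise from hydrolysis of a fluorogenic O-methyl fluorescein ester substrate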
[3] = viability loss in THP-1 monocytes – THP-1 cells, cytotoxicity control for Vif-APOBEC3G degradation inhibitor project, dose response (AID 1117359); type: functional; conditions: THP-1
[4] = target: Voltage-dependent T-type calcium channel subunit alpha-1H (Homo sapiens, UniProt O95180); type: functional;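 also: channel activity triggered by adding a high calcium stimulation buffer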
Sequence of Voltage-dependent T-type calcium channel subunit alpha-1H (O95180 whole entry): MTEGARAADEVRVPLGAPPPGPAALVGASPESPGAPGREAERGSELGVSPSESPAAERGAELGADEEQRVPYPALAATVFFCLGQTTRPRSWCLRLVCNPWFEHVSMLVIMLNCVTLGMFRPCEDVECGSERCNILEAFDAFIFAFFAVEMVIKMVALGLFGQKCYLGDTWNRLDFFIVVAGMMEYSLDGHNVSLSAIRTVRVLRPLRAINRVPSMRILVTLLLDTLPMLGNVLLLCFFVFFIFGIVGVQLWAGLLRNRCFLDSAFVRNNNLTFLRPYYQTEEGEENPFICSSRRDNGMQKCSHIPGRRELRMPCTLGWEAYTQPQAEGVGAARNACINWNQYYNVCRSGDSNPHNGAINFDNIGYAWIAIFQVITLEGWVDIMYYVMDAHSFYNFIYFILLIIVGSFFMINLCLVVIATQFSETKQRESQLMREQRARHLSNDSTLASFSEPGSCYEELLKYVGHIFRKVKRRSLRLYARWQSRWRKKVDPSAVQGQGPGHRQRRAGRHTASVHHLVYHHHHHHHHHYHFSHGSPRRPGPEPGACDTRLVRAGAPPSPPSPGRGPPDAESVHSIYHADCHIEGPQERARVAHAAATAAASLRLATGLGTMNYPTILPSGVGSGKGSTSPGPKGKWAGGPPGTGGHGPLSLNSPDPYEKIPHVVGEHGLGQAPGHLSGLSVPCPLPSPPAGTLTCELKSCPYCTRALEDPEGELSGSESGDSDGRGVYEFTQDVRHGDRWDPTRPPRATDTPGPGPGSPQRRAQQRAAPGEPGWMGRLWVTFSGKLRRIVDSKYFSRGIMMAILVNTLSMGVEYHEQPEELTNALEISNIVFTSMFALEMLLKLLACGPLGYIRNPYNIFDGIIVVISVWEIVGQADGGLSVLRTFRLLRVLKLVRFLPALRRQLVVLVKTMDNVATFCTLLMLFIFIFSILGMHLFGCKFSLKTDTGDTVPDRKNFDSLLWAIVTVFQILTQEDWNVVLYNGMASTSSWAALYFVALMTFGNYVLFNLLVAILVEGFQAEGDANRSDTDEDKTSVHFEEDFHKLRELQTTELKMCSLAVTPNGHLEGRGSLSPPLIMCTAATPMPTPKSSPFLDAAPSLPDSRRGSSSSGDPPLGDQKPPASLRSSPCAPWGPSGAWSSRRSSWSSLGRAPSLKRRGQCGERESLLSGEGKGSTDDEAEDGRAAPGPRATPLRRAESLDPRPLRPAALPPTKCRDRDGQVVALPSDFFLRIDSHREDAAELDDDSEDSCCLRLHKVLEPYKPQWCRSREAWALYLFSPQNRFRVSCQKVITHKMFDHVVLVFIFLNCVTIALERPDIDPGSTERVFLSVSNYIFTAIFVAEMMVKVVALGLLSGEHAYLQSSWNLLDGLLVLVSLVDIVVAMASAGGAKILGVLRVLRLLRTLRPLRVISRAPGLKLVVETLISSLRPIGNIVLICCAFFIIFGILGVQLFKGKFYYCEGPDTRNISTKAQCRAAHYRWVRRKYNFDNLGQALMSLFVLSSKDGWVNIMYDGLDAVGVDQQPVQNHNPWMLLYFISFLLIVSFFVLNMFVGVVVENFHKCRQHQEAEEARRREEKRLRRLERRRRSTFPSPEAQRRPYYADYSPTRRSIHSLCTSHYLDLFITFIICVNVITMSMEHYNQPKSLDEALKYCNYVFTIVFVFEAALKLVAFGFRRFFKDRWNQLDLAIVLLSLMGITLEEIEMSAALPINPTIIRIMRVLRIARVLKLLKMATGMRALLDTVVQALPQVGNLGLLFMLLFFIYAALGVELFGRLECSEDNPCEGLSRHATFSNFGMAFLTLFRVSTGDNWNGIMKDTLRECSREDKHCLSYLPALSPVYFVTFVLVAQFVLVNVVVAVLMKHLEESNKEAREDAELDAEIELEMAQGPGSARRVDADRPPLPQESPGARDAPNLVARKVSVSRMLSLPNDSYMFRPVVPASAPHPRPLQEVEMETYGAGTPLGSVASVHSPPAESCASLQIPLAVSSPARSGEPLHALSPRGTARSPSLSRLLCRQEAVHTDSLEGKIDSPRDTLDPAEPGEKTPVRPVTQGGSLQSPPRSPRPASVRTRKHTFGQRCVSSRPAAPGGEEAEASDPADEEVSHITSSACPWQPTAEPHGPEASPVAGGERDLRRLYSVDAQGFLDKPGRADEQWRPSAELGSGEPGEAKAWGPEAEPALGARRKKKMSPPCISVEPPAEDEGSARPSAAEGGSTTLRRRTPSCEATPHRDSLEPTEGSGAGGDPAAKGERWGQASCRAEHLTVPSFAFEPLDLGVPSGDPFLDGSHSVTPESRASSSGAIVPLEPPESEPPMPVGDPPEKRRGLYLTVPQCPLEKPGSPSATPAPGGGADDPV

Cytochrome P450 1A2 = target: T2, Cytochrome P450 1A2 (Homo sapiens, UniProt P05177);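 also: PubChem cytochrome P450 panel assay, CYP1A2 panel member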
T2 sequence (P05177 whole entry): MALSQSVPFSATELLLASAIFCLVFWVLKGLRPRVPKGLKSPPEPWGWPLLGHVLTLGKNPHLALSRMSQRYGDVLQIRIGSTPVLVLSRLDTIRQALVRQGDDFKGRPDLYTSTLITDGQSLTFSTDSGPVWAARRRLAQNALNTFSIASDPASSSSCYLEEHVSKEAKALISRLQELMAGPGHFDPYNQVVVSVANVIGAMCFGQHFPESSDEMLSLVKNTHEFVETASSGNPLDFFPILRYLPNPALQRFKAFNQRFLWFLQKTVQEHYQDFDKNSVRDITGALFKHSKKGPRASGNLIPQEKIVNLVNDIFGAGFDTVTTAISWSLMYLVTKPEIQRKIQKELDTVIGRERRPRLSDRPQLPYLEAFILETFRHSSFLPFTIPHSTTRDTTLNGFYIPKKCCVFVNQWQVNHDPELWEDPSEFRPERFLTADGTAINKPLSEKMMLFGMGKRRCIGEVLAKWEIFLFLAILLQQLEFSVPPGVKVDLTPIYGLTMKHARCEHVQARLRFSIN

Cytochrome P450 3A4 = Cytochrome P450 3A4 (Homo sapiens, UniProt P08684);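 also: CYP3A4 tested as one member of a cytochrome P450 panel screen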
Sequence of Cytochrome P450 3A4 (P08684 whole entry): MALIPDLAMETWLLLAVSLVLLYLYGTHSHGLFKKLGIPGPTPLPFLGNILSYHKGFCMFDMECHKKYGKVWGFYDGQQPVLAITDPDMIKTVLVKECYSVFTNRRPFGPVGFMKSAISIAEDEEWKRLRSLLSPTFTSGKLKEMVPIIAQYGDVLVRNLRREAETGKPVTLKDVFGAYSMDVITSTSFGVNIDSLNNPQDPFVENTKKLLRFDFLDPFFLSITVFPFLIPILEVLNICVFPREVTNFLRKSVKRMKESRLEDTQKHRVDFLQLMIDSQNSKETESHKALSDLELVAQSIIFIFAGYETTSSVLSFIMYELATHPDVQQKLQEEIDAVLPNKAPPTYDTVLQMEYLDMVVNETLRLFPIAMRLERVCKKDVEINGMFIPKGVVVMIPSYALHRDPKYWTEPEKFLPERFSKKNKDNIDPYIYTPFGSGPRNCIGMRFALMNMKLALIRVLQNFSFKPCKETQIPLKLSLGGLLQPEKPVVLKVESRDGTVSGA

Genome polyprotein = Genome polyprotein (dengue virus type 2, UniProt P29990); experiment: flavivirus cap methylation enzyme inhibition – biochemical, confirmation dose response, primary screen (AID 588689); type: functional
Sequence of Genome polyprotein (P29990 2492-3391 limits assumed): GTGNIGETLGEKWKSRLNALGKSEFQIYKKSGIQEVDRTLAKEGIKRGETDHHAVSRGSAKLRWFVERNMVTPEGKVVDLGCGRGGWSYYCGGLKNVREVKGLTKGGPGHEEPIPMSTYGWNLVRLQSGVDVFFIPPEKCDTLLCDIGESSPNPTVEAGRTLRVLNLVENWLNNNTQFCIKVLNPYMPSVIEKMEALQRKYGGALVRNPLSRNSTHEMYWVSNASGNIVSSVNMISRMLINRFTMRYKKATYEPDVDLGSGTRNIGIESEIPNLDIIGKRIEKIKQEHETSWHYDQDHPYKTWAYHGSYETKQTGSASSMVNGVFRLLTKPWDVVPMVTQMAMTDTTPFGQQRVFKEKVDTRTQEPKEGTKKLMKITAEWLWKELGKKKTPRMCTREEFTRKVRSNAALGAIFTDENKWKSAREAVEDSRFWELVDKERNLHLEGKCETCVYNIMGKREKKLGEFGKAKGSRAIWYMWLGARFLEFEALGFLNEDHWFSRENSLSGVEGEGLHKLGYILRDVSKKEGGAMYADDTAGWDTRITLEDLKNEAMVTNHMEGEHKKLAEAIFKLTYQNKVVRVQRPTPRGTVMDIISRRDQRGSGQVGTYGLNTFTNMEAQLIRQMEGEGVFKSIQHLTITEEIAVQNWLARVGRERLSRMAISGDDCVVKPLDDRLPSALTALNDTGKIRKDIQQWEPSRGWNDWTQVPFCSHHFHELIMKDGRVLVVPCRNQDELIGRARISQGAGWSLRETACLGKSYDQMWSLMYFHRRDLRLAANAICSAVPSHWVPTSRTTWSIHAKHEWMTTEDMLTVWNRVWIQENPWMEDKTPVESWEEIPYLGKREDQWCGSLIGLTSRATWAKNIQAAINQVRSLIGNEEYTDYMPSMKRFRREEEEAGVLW

[5] = target: T3, Polyadenylate-binding protein 1 (Homo sapiens, UniProt P11940); experiment: MLLE binding blockers, Cy5 peptide tracer – biochemical, fluorescence polarization, Cy5-PAM2 peptide, secondary, miRNA deadenylation inhibitor project, dose response (AID 602260); type: functional; conditions: read-out: IC50_Mean
T3 sequence (P11940 whole entry, the tested form may be a part): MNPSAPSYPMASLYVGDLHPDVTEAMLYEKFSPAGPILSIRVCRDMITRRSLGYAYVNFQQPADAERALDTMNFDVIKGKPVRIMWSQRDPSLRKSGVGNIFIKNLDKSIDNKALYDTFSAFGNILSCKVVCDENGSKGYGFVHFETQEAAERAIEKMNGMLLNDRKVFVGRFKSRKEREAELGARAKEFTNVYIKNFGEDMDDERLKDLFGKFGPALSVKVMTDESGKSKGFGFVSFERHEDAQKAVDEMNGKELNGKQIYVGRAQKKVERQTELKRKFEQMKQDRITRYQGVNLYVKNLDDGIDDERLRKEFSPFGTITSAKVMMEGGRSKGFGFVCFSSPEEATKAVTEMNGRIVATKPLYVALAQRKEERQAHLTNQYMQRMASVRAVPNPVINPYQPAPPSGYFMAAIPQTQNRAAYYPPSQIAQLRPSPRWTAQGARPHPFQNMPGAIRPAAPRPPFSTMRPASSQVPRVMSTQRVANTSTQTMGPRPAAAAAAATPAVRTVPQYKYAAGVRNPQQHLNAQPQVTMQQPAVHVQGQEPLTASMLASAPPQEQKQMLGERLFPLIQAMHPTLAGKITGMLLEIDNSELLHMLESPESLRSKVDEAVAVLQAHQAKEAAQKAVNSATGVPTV

[6] = target: T3, Polyadenylate-binding protein 1; experiment: MLLE domain peptide-binding blockers, IC50 – biochemical, fluorescence polarization, FITC-PAM2 peptide, dose response (AID 602259); type: functional; conditions: read-out: IC50_Mean
[7] = target: T4, Rac GTPase-activating protein 1 (Homo sapiens, UniProt Q9H0H5); experiment: blockers of MgcRacGAP-driven Rac1 GTP hydrolysis – biochemical, ADP Hunter fluorescence, primary and confirmatory, confirmation (AID 624330); type: functional
T4 sequence (Q9H0H5 whole entry): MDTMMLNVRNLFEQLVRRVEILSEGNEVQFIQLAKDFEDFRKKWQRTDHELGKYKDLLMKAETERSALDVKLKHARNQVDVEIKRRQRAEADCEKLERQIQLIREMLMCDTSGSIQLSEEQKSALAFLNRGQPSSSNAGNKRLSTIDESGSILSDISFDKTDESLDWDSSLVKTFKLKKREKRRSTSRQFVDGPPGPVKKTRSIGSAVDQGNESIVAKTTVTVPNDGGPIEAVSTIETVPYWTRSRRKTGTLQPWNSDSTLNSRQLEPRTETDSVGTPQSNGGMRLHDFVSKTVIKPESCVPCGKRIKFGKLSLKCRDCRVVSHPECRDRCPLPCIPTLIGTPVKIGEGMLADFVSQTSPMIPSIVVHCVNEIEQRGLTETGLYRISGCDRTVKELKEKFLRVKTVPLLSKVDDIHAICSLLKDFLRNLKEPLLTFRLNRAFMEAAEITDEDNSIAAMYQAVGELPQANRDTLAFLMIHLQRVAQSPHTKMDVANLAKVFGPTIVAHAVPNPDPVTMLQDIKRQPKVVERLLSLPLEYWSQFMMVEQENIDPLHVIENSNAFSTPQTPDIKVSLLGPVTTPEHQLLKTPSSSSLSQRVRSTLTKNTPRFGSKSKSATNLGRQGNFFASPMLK

[8] = blockers of HIV-1 envelope-mediated cell-cell fusion – cherry-pick, dose response (AID 652057); type: functional, cell-based
[9] = blockers of HIV-1 ZM109 envelope-driven cell-cell fusion – HeLa effector, CEM target cells, luciferase, cherry-pick, dose response (AID 652058); type: functional, cell-based;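 also: luciferase signal from HIV-1 Env mediated cell-cell fusion of effector and target cells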
[10] = HIV-1 AD8 envelope cell-cell fusion blockers – cherry-pick, dose response (AID 652062); type: functional, cell-based;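 also: luciferase signal from cell-cell fusion driven by HIV-1 clade B AD8 Env; potency is for inhibitors of fusion seen as a drop in luminescence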
[11] = target: T5, Short transient receptor potential channel 4 (Mus musculus, UniProt Q9QUQ5); experiment: block of DAMGO-driven TRPC4 calcium entry – cell-based, HEK293 TRPC4/mu-opioid, Fluo-4 calcium, dose response (AID 434942); type: functional;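 also: potency of inhibitors blocking the TRPC4 calcium response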
T5 sequence (Q9QUQ5 whole entry): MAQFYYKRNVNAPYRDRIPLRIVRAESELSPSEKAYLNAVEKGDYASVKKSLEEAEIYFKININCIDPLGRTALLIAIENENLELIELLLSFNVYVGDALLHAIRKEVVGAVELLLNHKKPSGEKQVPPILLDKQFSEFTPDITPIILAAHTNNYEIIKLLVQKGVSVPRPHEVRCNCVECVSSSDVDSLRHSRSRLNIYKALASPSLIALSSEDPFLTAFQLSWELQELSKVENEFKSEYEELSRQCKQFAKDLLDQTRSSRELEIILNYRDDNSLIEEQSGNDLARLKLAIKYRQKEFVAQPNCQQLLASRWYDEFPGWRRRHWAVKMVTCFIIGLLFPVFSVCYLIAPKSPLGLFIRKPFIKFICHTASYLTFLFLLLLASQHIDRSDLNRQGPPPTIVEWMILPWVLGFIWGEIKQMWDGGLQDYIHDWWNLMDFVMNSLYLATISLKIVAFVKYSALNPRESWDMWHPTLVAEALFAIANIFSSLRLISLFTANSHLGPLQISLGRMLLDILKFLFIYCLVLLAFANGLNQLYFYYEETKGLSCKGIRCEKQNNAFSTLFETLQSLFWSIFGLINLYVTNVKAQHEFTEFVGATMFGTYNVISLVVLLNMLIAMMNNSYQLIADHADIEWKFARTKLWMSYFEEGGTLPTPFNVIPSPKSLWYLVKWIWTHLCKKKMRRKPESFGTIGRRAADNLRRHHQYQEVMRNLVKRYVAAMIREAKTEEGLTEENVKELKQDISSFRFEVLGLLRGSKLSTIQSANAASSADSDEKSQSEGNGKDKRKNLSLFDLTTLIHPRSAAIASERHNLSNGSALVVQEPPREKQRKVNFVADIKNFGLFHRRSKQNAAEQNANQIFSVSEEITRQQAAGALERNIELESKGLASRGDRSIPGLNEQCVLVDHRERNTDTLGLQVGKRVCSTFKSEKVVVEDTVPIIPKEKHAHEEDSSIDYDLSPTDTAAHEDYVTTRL

- IC50 (Fatty acid synthase [1]): 5.18 µM (active)
- IC50 (Fatty acid synthase [2]): 4.85 µM (active)
Structure (SMILES): COC(=O)N1C(=O)[C@](Cc2ccccc2)(c2ccccc2)N1C(=O)OC

- EC50 [4]: 6.86 µM (active)
- AC50 (Cytochrome P450 1A2): 25.1 µM (inconclusive)
- AC50 (Cytochrome P450 3A4): 28.2 µM (inconclusive)
Structure (SMILES): CC(C)c1ccc(CN(C(=O)C2COc3ccccc3O2)C2CCS(=O)(=O)C2)cc1 (stereo unspecified)

- EC50 [4]: 5.14 µM (active)
Structure (SMILES): Cc1ccc(-c2noc(CN(C(=O)C(c3ccccc3)c3ccccc3)C(C)C)n2)cc1

- IC50 [5]: > 66 µM (inactive)
- IC50 [6]: > 66 µM (inactive)
Structure (SMILES): CC[C@]1(C(=O)OC)[C@H]2C(=O)N(Cc3ccccc3)C(=O)[C@H]2[C@H]2CN=C(SCC(=O)c3ccccc3)N21

- IC50 [5]: > 66 µM (inactive)
- IC50 [6]: > 66 µM (inactive)
Structure (SMILES): CCN(CC)CCSC(=O)C(c1ccccc1)c1ccccc1

- EC50 [4]: 8.83 µM (active)
Structure (SMILES): O=C(CC1NCCNC1=O)Nc1ccc(Oc2ccccc2)cc1 (stereo unspecified)

- EC50 [4]: 13.7 µM (active)
Structure (SMILES): COc1ccc(N2CCN(C(=O)CC(NC(N)=O)c3cccc(Oc4ccccc4)c3)CC2)cc1 (stereo unspecified)

Further lines, the molecule ahead of its results:

Structure (SMILES): c1ccc2c3c([nH]c2c1)CNCC3 [TRYPTOLINE]
- CC50 [3]: 28.7 µM (active)

Structure (SMILES): COC(=O)C(CCCCNC(=O)c1ccc([N+](=O)[O-])cc1)NC(=O)c1ccc([N+](=O)[O-])cc1 (stereo unspecified)
- IC50 (Fatty acid synthase [1]): 33.6 µM (inactive)
- IC50 (Fatty acid synthase [2]): 55.8 µM (inactive)

Structure (SMILES): COc1cccc(/C=C2\C(=O)C(=O)c3ccccc32)c1
- IC50 (Genome polyprotein): 12.9 µM (active)
- IC50 [5]: > 66 µM (inactive)
- IC50 [6]: > 66 µM (inactive)
- IC50 [7]: 47.3 µM (active)

Structure (SMILES): CC1CCN(c2ccc([N+](=O)[O-])c(SCCO)c2)CC1
- CC50 [3]: > 40 µM (active)

Structure (SMILES): Cc1cc(C)c2c(N)c(C(=O)NCC3CCCCC3)sc2n1
- IC50 [5]: > 66 µM (inactive)
- IC50 [6]: > 66 µM (inactive)

Structure (SMILES): CN1C(C(=O)NCc2cccc(Br)c2)CC2Cn3c(nc4cc(Cl)c(Cl)cc43)C21 (stereo unspecified)
- IC50 (Fatty acid synthase [1]): 15.2 µM (active)
- IC50 (Fatty acid synthase [2]): 10.3 µM (active)

Structure (SMILES): Cc1nn(Cc2ccc([N+](=O)[O-])cc2)c(=O)n1N(C)c1ncc(C(F)(F)F)cc1Cl
- IC50 (Fatty acid synthase [1]): 4.91 µM (active)
- IC50 (Fatty acid synthase [2]): 2.51 µM (active)

Structure (SMILES): O=C(c1cccc(C(F)(F)F)c1)C1CCCN(C(=O)CCCN2CCCC2=O)C1 (stereo unspecified)
- CC50 [3]: > 40 µM (active)

Structure (SMILES): C[C@H]1CN([C@@H](C)CO)S(=O)(=O)c2ccc(Br)cc2O[C@H]1CN(C)Cc1ccccc1
- AC50 [8]: 23.5 µM (active)
- AC50 [9]: 20.6 µM (active)
- AC50 [10]: 33.4 µM (active)

Structure (SMILES): O=C(COc1ccc(Cl)cc1)Nc1ccc(C(=O)O)cc1NC(=O)COc1ccc(Cl)cc1
- EC50 [11]: 0.0013 µM (active)
- IC50 (Fatty acid synthase [1]): 15.3 µM (active)
- IC50 (Fatty acid synthase [2]): 7.29 µM (active)

Structure (SMILES): COc1ccc(NC(=O)Nc2ccc3c(c2)C(=O)N([C@@H](C)CO)C[C@H](C)[C@H](CN(C)S(=O)(=O)c2ccc(C)cc2)O3)cc1
- AC50 [8]: 6.5 µM (active)
- AC50 [9]: 17.5 µM (active)
- AC50 [10]: 23 µM (active)
